Measurements reported in patent US8278289B2, “Boroxine composition for removal of skin changes” (priority 2006, dated 2012).

Legend:
[1] = system: mouse carcinoma cells SCC VII; assay: Cytotoxic effect on mouse carcinoma cells SCC VII (crystal violet viability); assay type: cell-based; conditions: viable cells by absorbance at 590 nm after 24 hours with substance; XS100 = dosage 0.5 μg; variation max 10%
Method: (§1) An investigation of anti-tumor activity of the boroxine compound (XS) was conducted on cell lines of mouse fibro-sarcoma FsaR and mouse carcinoma SCC VII.
(§2) Cell lines (mouse fibro-sarcoma FsaR and mouse carcinoma SCC VII) were incubated at optimal conditions for 24 hours, followed by addition of tested substances in a dosage of 0.5 μg (XS100) and combinations with Li (lithium) and SNP (sodium-nitroprusside) Li (lithium) is blocker of GSK-3 (glycogen-synthetase-kinase), an enzyme involved in pathways that modulate cell's death. SNP (sodium-nitroprusside) is modulator of pro-apoptotic protein p53 (tumor suppressor protein).
(§3) Cells were additionally incubated for 24 hours in the presence of the substances. Later, cells were fixed by glutaraldehyde and stained in 0.1% crystal violet. Stain attached to the viable cells was extracted by 0.2% Triton-X 100 and extract absorbance was determined at 590 nm. Value of absorbance is proportional with viable cells number.
(§4) The following results have been obtained (the observed variation of the observed values are a maximum of 10%).

[2] = system: mouse fibro-sarcoma FsaR; assay: Cytotoxic effect on mouse fibro-sarcoma FsaR (crystal violet viability); assay type: cell-based; conditions: viable cells by absorbance at 590 nm after 24 hours with substance; XS100 = dosage 0.5 μg; variation max 10%
Method: as §1, §2, §3, §4

Substance: K2[B3O3F4OH] [XS100]
- % of control [1]: 42 % of control
- % of control [2]: 21 % of control
